# From ChEMBL document CHEMBL5303304, “EUbOPEN Chemogenomics Library - IncuCyte” (2023)
# Assays:
# Assay type in all cases: toxicity, cell-based
# Fibroblast = assay: Incucyte cell viability with human fibroblast; settings: 10 µM, compound concentration 10 uM
# HEK-293T = assay: Incucyte cell viability with HEK293T; settings: human, 10 µM, compound concentration 10 uM
# U2OS = assay: Incucyte cell viability with U2OS; settings: human, 10 µM, compound concentration 10 uM
# Further: unitless GR value; below 1 slowed growth and below 0 cell loss.
SMILES,"Growth Rate (Fibroblast; 6 h, replicate number 1)","Growth Rate (Fibroblast; 6 h, replicate number 2)","Growth Rate (Fibroblast; 12 h, replicate number 2)","Growth Rate (Fibroblast; 18 h, replicate number 2)","Growth Rate (Fibroblast; 24 h, replicate number 1)","Growth Rate (Fibroblast; 24 h, replicate number 2)","Growth Rate (HEK-293T; 6 h, replicate number 1)","Growth Rate (HEK-293T; 6 h, replicate number 2)","Growth Rate (HEK-293T; 12 h, replicate number 1)","Growth Rate (HEK-293T; 12 h, replicate number 2)","Growth Rate (HEK-293T; 18 h, replicate number 1)","Growth Rate (HEK-293T; 18 h, replicate number 2)","Growth Rate (HEK-293T; 24 h, replicate number 1)","Growth Rate (HEK-293T; 24 h, replicate number 2)","Growth Rate (U2OS; 6 h, replicate number 2)","Growth Rate (U2OS; 12 h, replicate number 1)","Growth Rate (U2OS; 18 h, replicate number 1)","Growth Rate (U2OS; 18 h, replicate number 2)","Growth Rate (U2OS; 24 h, replicate number 2)","Growth Rate (U2OS; 24 h, replicate number 1)",further results
COc1cc(N2CCN(C)CC2)ccc1Nc1ncc2c(n1)N(C)c1ccccc1C(=O)N2CC(F)(F)F,0.44,0.47,0.51,0.31,-0.1,0.08,-0.03,0,0.26,0.22,0.22,0.29,0.27,0.36,0.9,0.97,0.99,0.87,0.83,–,"Growth Rate (Fibroblast; 12 h, replicate number 1): 0.43; Growth Rate (Fibroblast; 18 h, replicate number 1): 0.09"
CC(C)c1cnn2c(NCc3ccccc3)cc(NCCCCCCN)nc12.Cl,0.36,0.27,0.65,0.69,1,0.87,-0.19,-0.03,0.25,0.46,0.64,0.6,0.65,0.66,0.69,0.99,0.92,0.76,0.71,0.87,"Growth Rate (Fibroblast; 0 h, replicate number 2): -0.08; Growth Rate (Fibroblast; 12 h, replicate number 1): 0.36; Growth Rate (Fibroblast; 18 h, replicate number 1): 0.9; Growth Rate (U2OS; 0 h, replicate number 2): 0.64; Growth Rate (U2OS; 12 h, replicate number 2): 0.78"
COc1cc(-c2cncc(-c3cnn(C4CCNCC4)c3)c2)cc(OC)c1OC,–,0.74,0.97,–,0.86,0.9,0.84,0.78,–,0.82,–,0.73,–,0.77,0.55,–,–,0.99,0.94,–,"Growth Rate (Fibroblast; 0 h, replicate number 1): 0.47; Growth Rate (U2OS; 0 h, replicate number 1): -1"
CC(C)C(=O)N[C@@H]1CCN(C(=O)Nc2nc3c(s2)-c2nc(-c4ccccc4Cl)ncc2CC3)C1,–,–,–,–,–,–,0.21,-0.05,0.16,-0.08,0.29,0.03,0.37,0.15,–,0.94,0.91,0.77,0.69,0.88,"Growth Rate (Fibroblast; 0 h, replicate number 1): -0.95; Growth Rate (U2OS; 12 h, replicate number 2): 0.9"
CN1C(=O)c2ccccc2N(C)c2nc(Nc3cnn(C4CCNCC4)c3)ncc21,–,–,0.94,0.43,–,0.43,-0.59,-0.85,-0.25,-0.41,0.19,-0.15,0.37,0.07,0.15,0.07,0.07,0.23,0.24,0.15,"Growth Rate (Fibroblast; 0 h, replicate number 1): -0.99; Growth Rate (Fibroblast; 0 h, replicate number 2): -0.07; Growth Rate (U2OS; 0 h, replicate number 2): 0.12; Growth Rate (U2OS; 6 h, replicate number 1): -0.35; Growth Rate (U2OS; 12 h, replicate number 2): 0.18"
CC(=O)c1c(C)c2cnc(Nc3ccc(N4CCN(CCCCNC(=O)COc5cccc6c5C(=O)N(C5CCC(=O)NC5=O)C6=O)CC4)cn3)nc2n(C2CCCC2)c1=O (stereo not given),0.72,–,–,–,0.88,–,0.75,–,0.82,0.85,0.85,0.98,0.91,–,0.97,0.99,–,–,–,1,"Growth Rate (Fibroblast; 0 h, replicate number 2): 0.14; Growth Rate (U2OS; 0 h, replicate number 2): 0.65"
